This note sets out measurements from patent US20130244999A1, “Substituted Heterocyclic Compounds” (Incyte Corporation, priority 2008, published 2013).

The target in this assay is T1, histamine H4 receptor (Homo sapiens, UniProt Q9H3N8).
T1 construct: expressed in transfected cells; host or cells: HEK293SFM cells (membrane preparation)
Briefly: Inhibition of histamine H4 receptor (Table A1; H4 membrane binding assay). Conditions: for IC50: histamine H4 receptor, "> a" = exceeds experiment limit. The essentials: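 Membranes came from recombinant HEK293SFM cells expressing human H4, homogenized in 50 mM Tris-HCl pH 7.5 with protease inhibitors. Nonspecific binding was set with 1000× unlabeled ligand. Bound radioligand was separated on PEI-treated GF/B filters and counted by liquid scintillation.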

The structures appear in SMILES notation.

T1 sequence (Q9H3N8 whole entry): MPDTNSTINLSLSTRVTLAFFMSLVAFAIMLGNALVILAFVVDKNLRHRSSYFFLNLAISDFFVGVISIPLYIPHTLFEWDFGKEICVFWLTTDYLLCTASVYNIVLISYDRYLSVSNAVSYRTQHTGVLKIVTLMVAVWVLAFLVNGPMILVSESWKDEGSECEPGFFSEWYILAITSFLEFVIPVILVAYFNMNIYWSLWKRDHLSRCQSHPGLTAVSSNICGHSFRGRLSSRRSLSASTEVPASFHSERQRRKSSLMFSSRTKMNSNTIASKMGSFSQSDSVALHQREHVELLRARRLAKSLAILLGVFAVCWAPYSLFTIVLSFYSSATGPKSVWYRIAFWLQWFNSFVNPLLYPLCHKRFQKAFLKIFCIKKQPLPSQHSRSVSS

The IC50 is the point on the concentration scale where inhibition reaches its midpoint. High values mean weaker potency in that assay, low ones greater potency in that assay. `CN1CCN(c2cc(N3CCc4ccc(C(=O)N5Cc6ccccc6C5)cc4C3)nc(N)n2)CC1` [Example 26, 4-[7-(1,3-Dihydro-2H-isoindol-2-ylcarbonyl)-3,4-dihydroisoquinolin-2(1H)-yl]-6-(4-methylpiperazin-1-yl)pyrimidin-2-amine] displayed a half-inhibitory concentration (IC50) of 244 nM. Regarding `CN1CCN(c2cc(N3CCc4ccc(C(=O)N(C)C)cc4C3)nc(N)n2)CC1` [Example 27, 2-[2-Amino-6-(4-methylpiperazin-1-yl)pyrimidin-4-yl]-N,N-dimethyl-1,2,3,4-tetrahydroisoquinoline-7-carboxamide], the IC50 was 670 nM. The compound `CN1CCN(c2cc(N3CCc4ccc(C(=O)NC5CCCC5)cc4C3)nc(N)n2)CC1` [Example 28, 2-[2-Amino-6-(4-methylpiperazin-1-yl)pyrimidin-4-yl]-N-cyclopentyl-1,2,3,4-tetrahydroisoquinoline-7-carboxamide] came in with an IC50 of 754 nM. Consider `CN1CCN(c2cc(N3CCc4ccc(C(=O)N5CCCC5)cc4C3)nc(N)n2)CC1` [Example 29, 4-(4-Methylpiperazin-1-yl)-6-[7-(pyrrolidin-1-ylcarbonyl)-3,4-dihydroisoquinolin-2 (1H)-yl]pyrimidin-2-amine], for which the IC50 amounted to 229 nM. `CCOC(=O)N1CCN(c2ccc3c(c2)CN(c2cc(N4CCN(C)CC4)nc(N)n2)CC3)CC1` [Example 30, Ethyl 4-{2-[2-amino-6-(4-methylpiperazin-1-yl)pyrimidin-4-yl]-1,2,3,4-tetrahydroisoquinolin-7-yl}piperazine-1-carboxylate]: the IC50 was 282 nM.

In the case of `CC(=O)N1CCN(c2ccc3c(c2)CN(c2cc(N4CCN(C)CC4)nc(N)n2)CC3)CC1` [Example 31, 4-[7-(4-Acetylpiperazin-1-yl)-3,4-dihydroisoquinolin-2 (1H)-yl]-6-(4-methylpiperazin-1-yl)pyrimidin-2-amine], the IC50 was found to be 299 nM. Regarding `CN1CCN(c2cc(N3CCc4ccc(N5CCN(C(=O)c6ccco6)CC5)cc4C3)nc(N)n2)CC1` [Example 32, 4-{7-[4-(2-Furoyl)piperazin-1-yl]-3,4-dihydroisoquinolin-2(1H)-yl}-6-(4-methylpiperazin-1-yl)pyrimidin-2-amine], the IC50 was determined as 178 nM. The compound `CN1CCN(c2cc(N3CCc4ccc(N5CCN(C(=O)Nc6ccc(Cl)cc6)CC5)cc4C3)nc(N)n2)CC1` [Example 33, 4-{2-[2-Amino-6-(4-methylpiperazin-1-yl)pyrimidin-4-yl]-1,2,3,4-tetrahydroisoquinolin-7-yl}-N-(4-chlorophenyl)piperazine-1-carboxamide] had a 50% inhibitory concentration (IC50) of 266 nM.

In general, inhibition refers to the share of the control response that was lost under treatment. Lower therefore signals a weak effect. As to `CCOC(=O)Nc1ccc2c(c1)CN(c1cc(N3CCN(C)CC3)nc(N)n1)CC2` [Example 34, Ethyl {2-[2-amino-6-(4-methylpiperazin-1-yl)pyrimidin-4-yl]-1,2,3,4-tetrahydroisoquinolin-7-yl}carbamate], the inhibition at 1 µM was 69%. Same read-out and setting: to `CN1CCN(c2cc(N3CCc4ccc(NC(=O)N5CCCCC5)cc4C3)nc(N)n2)CC1` [Example 35, N-{2-[2-Amino-6-(4-methylpiperazin-1-yl)pyrimidin-4-yl]-1,2,3,4-tetrahydroisoquinolin-7-yl}piperidine-1-carboxamide] belongs 66%.

Regarding `CN1CCN(c2cc(N3CCc4ccc(N5CCC(C#N)CC5)cc4C3)nc(N)n2)CC1` [Example 36, 1-{2-[2-Amino-6-(4-methylpiperazin-1-yl)pyrimidin-4-yl]-1,2,3,4-tetrahydroisoquinolin-7-yl}piperidine-4-carbonitrile], the IC50 was determined as 393 nM. The same measure, in the same setting: for `CN1CCN(c2cc(N3CCc4ccc(N5CCC(O)(c6ccccc6)CC5)cc4C3)nc(N)n2)CC1` [Example 37, 1-{2-[2-Amino-6-(4-methylpiperazin-1-yl)pyrimidin-4-yl]-1,2,3,4-tetrahydroisoquinolin-7-yl}-4-phenylpiperidin-4-ol] the value was 579 nM; for `CN1CCN(c2cc(N3CCc4ccc(N5CCC(c6ccncc6)CC5)cc4C3)nc(N)n2)CC1` [Example 38, 4-(4-Methylpiperazin-1-yl)-6-[7-(4-pyridin-4-ylpiperidin-1-yl)-3,4-dihydroisoquinolin-2(1H)-yl]pyrimidin-2-amine], 186 nM; for `CNC(=O)c1ccc(C2CCN(c3ccc4c(c3)CN(c3cc(N5CCN(C)CC5)nc(N)n3)CC4)CC2)cc1` [Example 39, 4-(1-{2-[2-Amino-6-(4-methylpiperazin-1-yl)pyrimidin-4-yl]-1,2,3,4-tetrahydroisoquinolin-7-yl}piperidin-4-yl)-N-methylbenzamide], 51 nM. On the same count and under the same terms, for `CN1CCN(c2cc(N3CCc4ccc(N5CCC(c6ccc(C(N)=O)cc6)CC5)cc4C3)nc(N)n2)CC1` [Example 40, 4-(1-{2-[2-Amino-6-(4-methylpiperazin-1-yl)pyrimidin-4-yl]-1,2,3,4-tetrahydroisoquinolin-7-yl}piperidin-4-yl)benzamide] the value was 39 nM; for `CN1CCN(c2cc(N3CCc4ccc(N5CCC(c6ccn(C)c(=O)c6)CC5)cc4C3)nc(N)n2)CC1` [Example 41, 4-(1-{2-[2-Amino-6-(4-methylpiperazin-1-yl)pyrimidin-4-yl]-1,2,3,4-tetrahydroisoquinolin-7-yl}piperidin-4-yl)-1-methylpyridin-2(1H)-one], 38 nM.

Take `CN1CCN(c2cc(N3CCc4ccc(N5CCC(c6ccc(=O)n(C)c6)CC5)cc4C3)nc(N)n2)CC1` [Example 42, 5-(1-{2-[2-Amino-6-(4-methylpiperazin-1-yl)pyrimidin-4-yl]-1,2,3,4-tetrahydroisoquinolin-7-yl}piperidin-4-yl)-1-methylpyridin-2(1H)-one]: the IC50 came to 81 nM.

Turning to `CN1CCN(c2cc(N3CCc4ccc(-c5ccn(C)c(=O)c5)cc4C3)nc(N)n2)CC1` [Example 43, 4-{2-[2-Amino-6-(4-methylpiperazin-1-yl)pyrimidin-4-yl]-1,2,3,4-tetrahydroisoquinolin-7-yl}-1-methylpyridin-2(1H)-one], the IC50 was 99 nM. `CNC(=O)c1ccc(N2CCN(c3ccc4c(c3)CN(c3cc(N5CCN(C)CC5)nc(N)n3)CC4)C(=O)C2)nc1` [Example 44, 6-(4-{2-[2-Amino-6-(4-methylpiperazin-1-yl)pyrimidin-4-yl]-1,2,3,4-tetrahydroisoquinolin-7-yl}-3-oxopiperazin-1-yl)-N-methylnicotinamide] came in with an IC50 of 93 nM.

In turn, `CNC(=O)c1ncc(-c2ccc3c(c2)CN(c2cc(N4CCN(C)CC4)nc(N)n2)CC3)cc1C` [Example 45, 5-{2-[2-Amino-6-(4-methylpiperazin-1-yl)pyrimidin-4-yl]-1,2,3,4-tetrahydroisoquinolin-7-yl}-N,3-dimethylpyridine-2-carboxamide] displayed a half-maximal inhibitory concentration (IC50) of 106 nM. In turn, `Cc1cc(-c2ccc3c(c2)CN(c2cc(N4CCN(C)CC4)nc(N)n2)CC3)cnc1C(=O)N(C)C` [Example 46, 5-{2-[2-Amino-6-(4-methylpiperazin-1-yl)pyrimidin-4-yl]-1,2,3,4-tetrahydroisoquinolin-7-yl}-N,N,3-trimethylpyridine-2-carboxamide] displayed an IC50 of 173 nM. This IC50 is about 1.6-fold higher than that of the compound before. In the case of `CNC(=O)c1csc(-c2ccc3c(c2)CN(c2cc(N4CCN(C)CC4)nc(N)n2)CC3)n1` [Example 47, 2-{2-[2-Amino-6-(4-methylpiperazin-1-yl)pyrimidin-4-yl]-1,2,3,4-tetrahydroisoquinolin-7-yl}-N-methyl-1,3-thiazole-4-carboxamide], the IC50 amounted to 127 nM. On the same count and under the same terms, to `CN1CCN(c2cc(N3CCc4ccc(-c5nc(C(=O)N6CCCC6)cs5)cc4C3)nc(N)n2)CC1` [Example 48, 4-(4-Methylpiperazin-1-yl)-6-[7-[4-(pyrrolidin-1-ylcarbonyl)-1,3-thiazol-2-yl]-3,4-dihydroisoquinolin-2(1H)-yl]pyrimidin-2-amine] belongs 200 nM; to `CNC(=O)c1ccc(-c2ccc3c(c2)CN(c2cc(N4CCN(C)CC4)nc(N)n2)C(C)C3)cn1` (centres unmarked) [Example 49, 5-{2-[2-Amino-6-(4-methylpiperazin-1-yl)pyrimidin-4-yl]-3-methyl-1,2,3,4-tetrahydroisoquinolin-7-yl}-N-methylpyridine-2-carboxamide], 42 nM; to `CC1Cc2ccc(-c3ccc(C(=O)N4CCC(N(C)C)C4)nc3)cc2CN1c1cc(N2CCN(C)CC2)nc(N)n1` (centres unmarked) [Example 57, 4-[7-(6-{[3-(Dimethylamino)pyrrolidin-1-yl]carbonyl}pyridin-3-yl)-3-methyl-3,4-dihydroisoquinolin-2(1H)-yl]-6-(4-methylpiperazin-1-yl)pyrimidin-2-amine], 119 nM.

The compound `CC1Cc2ccc(-c3ccc(C(=O)N4CCN(C)CC4)nc3)cc2CN1c1cc(N2CCN(C)CC2)nc(N)n1` (centres unmarked) [Example 58, 4-[3-Methyl-7-{6-[(4-methylpiperazin-1-yl)carbonyl]pyridin-3-yl}-3,4-dihydroisoquinolin-2 (1H)-yl]-6-(4-methylpiperazin-1-yl)pyrimidin-2-amine] came in with an IC50 of 144 nM. This IC50 and that of the compound before are within 1.5-fold of each other. For the compound `CC1Cc2ccc(-c3ccc(C(=O)NCCO)nc3)cc2CN1c1cc(N2CCN(C)CC2)nc(N)n1` (centres unmarked) [Example 59, 5-{2-[2-Amino-6-(4-methylpiperazin-1-yl)pyrimidin-4-yl]-3-methyl-1,2,3,4-tetrahydroisoquinolin-7-yl}-N-(2-hydroxyethyl)pyridine-2-carboxamide], the IC50 was 54 nM. Compared with the last compound, the IC50 is about 2.7-fold lower. On to `CNC(=O)Cn1cc(-c2ccc3c(c2)CN(c2cc(N4CCN(C)CC4)nc(N)n2)C(C)C3)cn1` (centres unmarked) [Example 79, 2-(4-{2-[2-Amino-6-(4-methylpiperazin-1-yl)pyrimidin-4-yl]-3-methyl-1,2,3,4-tetrahydroisoquinolin-7-yl}-1H-pyrazol-1-yl)-N-methylacetamide], for which the concentration for half-maximal inhibition (IC50) turned out to be 108 nM. On to `CC1Cc2ccc(-c3cnn(CC(=O)N(C)C)c3)cc2CN1c1cc(N2CCN(C)CC2)nc(N)n1` (centres unmarked) [Example 80, 2-(4-{2-[2-Amino-6-(4-methylpiperazin-1-yl)pyrimidin-4-yl]-3-methyl-1,2,3,4-tetrahydroisoquinolin-7-yl}-1H-pyrazol-1-yl)-N,N-dimethylacetamide], for which the IC50 came to 106 nM.
